Measurements taken from the supplement of paper PMC11208160.

Assay: recombinant barcode read abundance after kanamycin selection (control-corrected) (log10(CPM+1)); higher = more efficient recombination; sequences stand for … in AGTGCAGAGAAAATCGGCCAGTTTTCTCTGCCTGCAGTCCGCATGCCGT…AGATTTATGCAGCGGACTGCCTTTCTCCCAAAGTGATAAACCGGACAGTATCATGGACCGGTTTTCCCGGTAATCCGTATTTGCAAGGTTGGTTTCACT; site = the 11-nt target
Outline: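 Recombination efficiency comes from barcode counts at recombinant junctions, converted to counts per million, averaged and corrected against the control. Values appear as log10(CPM+1). They were obtained from a pooled E. coli screen in which each oligo paired a target with an IS621 bridge RNA target-binding loop, and cells were plated in duplicate on chloramphenicol/ampicillin LB agar or on chloramphenicol/ampicillin/kanamycin with 0.1 mM IPTG.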
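Note: IS621 recombinase and bridge RNA in Escherichia coli cells.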

Sequence | recombinant barcode read abundance (log10)
CCATCTCCTTGGGTTCTAACCTGTTGCCT (site TCATCTCCTAG) | 0.0439
CCTTAGTCTTGGGTTCTAACCTGTTGCAG (site ACATAGTCTCT) | 0.169
GAGGACTCTTGGGTTCTAACCTGTTGCCG (site GAGGACTCTTG) | 0.476
GTTTCGGCTTGGGTTCTAACCTGTTGCCT (site GTTACGGCTAG) | 0.041
TAGTTAGCTTGGGTTCTAACCTGTTGCCA (site TAGTTAGCTGG) | 0.0516
CTAGGCCCTTGGGTTCTAACCTGTTGCTT (site CTAGGCCCTAG) | 0.229
CGCTCGTCTTGGGTTCTAACCTGTTGCCT (site CGCTCGTCTAG) | 0.00559
AAACTAGCTTGGGTTCTAACCTGTTGCGG (site CGTGCGCCTAG) | 0.288
TACTGCTCTTGGGTTCTAACCTGTTGCTT (site TACTGCTCTAA) | 0.296
TTGAAACCTTGGGTTCTAACCTGTTGCCT (site GACGCCTCTGC) | 0.0146
AGCAGAGCTTGGGTTCTAACCTGTTGCTG (site AGCAGAGCTCT) | 0.93
AGTTAACCTTGGGTTCTAACCTGTTGCGG (site ACTTGACCTCC) | 0.0373
CCGAATGCTTGGGTTCTAACCTGTTGCCT (site CCGGATGCTAG) | 0.144
AGTCAGTCTTGGGTTCTAACCTGTTGCCA (site AGTTAGTCTTG) | 0.121
AGAAGTCCTTGGGTTCTAACCTGTTGCGG (site AGAAGTCCTCC) | 1.91
CCACGAGCTTGGGTTCTAACCTGTTGCGG (site CGACGAGCTCC) | 0.148
CATTGTACTTGGGTTCTAACCTGTTGCTA (site CATTGTACTTA) | 0.457
CTAGCGGCTTGGGTTCTAACCTGTTGCAG (site CTAGCGGCTCT) | 2.05
CATTCCTCTTGGGTTCTAACCTGTTGCCT (site CATTCCTCTAG) | 0.0779
AGCGCTCCTTGGGTTCTAACCTGTTGCGT (site AGCGCTCCTAC) | 0.646
GCTGGGTCTTGGGTTCTAACCTGTTGCTT (site GCGGGGTCTAA) | 0.0202
TAAAACCCTTGGGTTCTAACCTGTTGCAT (site CCGCGGACTTA) | 0.15

Sequence | recombinant barcode read abundance (log10)
GAGTGGCCTTGGGTTCTAACCTGTTGCGG (site GAGTCGCCTCC) | 0.0473
GCTGCGACTTGGGTTCTAACCTGTTGCCT (site GCAGCGACTAG) | 0.17
GCGACTCCTTGGGTTCTAACCTGTTGCTT (site GCGACTCCTAG) | 0.0916
CGTGAAGCTTGGGTTCTAACCTGTTGCCT (site CGTATAGCTAG) | 0.183
GTATGCTCTTGGGTTCTAACCTGTTGCGT (site GTATCCTCTAT) | 0.11
TCTCACCCTTGGGTTCTAACCTGTTGCCT (site TCTCACCCTAG) | 0.516
TCCCATACTTGGGTTCTAACCTGTTGCCT (site TCCCATGCTAG) | 0.109
AATTAAGCTTGGGTTCTAACCTGTTGCCT (site AATTGAGCTAG) | 0.088
GTCGCCTCTTGGGTTCTAACCTGTTGCCT (site GTCACCTCTAG) | 0.157
CAGGGGACTTGGGTTCTAACCTGTTGCCA (site CAGGGGACTTG) | 1.04
ACCCAACCTTGGGTTCTAACCTGTTGCCT (site ACCCAACCTAG) | 1.58
CGCGGTTCTTGGGTTCTAACCTGTTGCCT (site CGCGGTTCTAG) | 0.0855
TCGCAGACTTGGGTTCTAACCTGTTGCCT (site TCGCAGACTAG) | 0.286
ATGGGCCCTTGGGTTCTAACCTGTTGCTA (site ATGGGCCCTAA) | 0.362
TCAGATTCTTGGGTTCTAACCTGTTGCCT (site TCAGATTCTAG) | 0.78
TCCACATCTTGGGTTCTAACCTGTTGCCT (site TCCACACCTAG) | 0.793
AGTATACCTTGGGTTCTAACCTGTTGCTG (site AGTAGACCTAA) | 0.178
ATCACAGCTTGGGTTCTAACCTGTTGCCT (site ATCACAGCTAG) | 0.736
CTGAGTTCTTGGGTTCTAACCTGTTGCCA (site CTGAGTCCTTG) | 0.269
TCTGAGGCTTGGGTTCTAACCTGTTGCTG (site TCGGAGGCTCA) | 0.0364
TCTCGTCCTTGGGTTCTAACCTGTTGCTA (site TCTCGTCCTTA) | 0.0623
TCCCGAACTTGGGTTCTAACCTGTTGCCT (site TCCCGAGCTAG) | 0.173

Sequence | recombinant barcode read abundance (log10)
GCCAACCCTTGGGTTCTAACCTGTTGCTA (site GCCAACCCTTA) | 0.116
GCAATGTCTTGGGTTCTAACCTGTTGCCT (site GCAATGTCTAG) | 1.42
CCAGCAGCTTGGGTTCTAACCTGTTGCCT (site CCAGGAGCTAG) | 0.0858
GGTTGGCCTTGGGTTCTAACCTGTTGCGG (site GGTTGGCCTCC) | 0.624
CTACAGCCTTGGGTTCTAACCTGTTGCTT (site CTACACCCTAA) | 0.0559
TAGTTTACTTGGGTTCTAACCTGTTGCAG (site TAGTTTACTCT) | 0.272
AAGTTTACTTGGGTTCTAACCTGTTGCTT (site AAGTTTACTAG) | 0.0137
AACTTCCCTTGGGTTCTAACCTGTTGCCT (site AACTTCCCTAG) | 0.315
GACGTACCTTGGGTTCTAACCTGTTGCCT (site GACATACCTAG) | 0.428
TAGTACACTTGGGTTCTAACCTGTTGCAC (site ACCATGTCTCC) | 0.0598
GAGACATCTTGGGTTCTAACCTGTTGCCT (site GAGAGATCTAG) | 0.463
TAGCCGACTTGGGTTCTAACCTGTTGCTT (site TAGACGACTAA) | 0.131
CGTCTGACTTGGGTTCTAACCTGTTGCCA (site CGTCTGACTTG) | 0.241
CACAAGTCTTGGGTTCTAACCTGTTGCTT (site CGCACGTCTAA) | 0.0654
CCACAGTCTTGGGTTCTAACCTGTTGCCT (site CCACTGTCTAG) | 0.0628
AGACCCTCTTGGGTTCTAACCTGTTGCCT (site GGACCCTCTAG) | 0.304
CAAGGGCCTTGGGTTCTAACCTGTTGCCT (site CAATGGCCTAG) | 0.375
CTACCTTCTTGGGTTCTAACCTGTTGCCT (site CAACCTTCTAG) | 0.203
AACAAGACTTGGGTTCTAACCTGTTGCCT (site GTACGACCTGT) | 0.274
TCGCGTGCTTGGGTTCTAACCTGTTGCGG (site TCGCGTGCTCC) | 0.363
GTACGTCCTTGGGTTCTAACCTGTTGCGT (site GTACGTCCTAT) | 0.764
AGTCTAGCTTGGGTTCTAACCTGTTGCCG (site AGTCTAGCTGG) | 0.0274

Sequence | recombinant barcode read abundance (log10)
AGTCTCCCTTGGGTTCTAACCTGTTGCCT (site AGCCTCCCTAG) | 0.0404
GATGCTACTTGGGTTCTAACCTGTTGCCA (site GATCCTACTTG) | 0.124
GACGGATCTTGGGTTCTAACCTGTTGCCT (site GACGGATCTAT) | 0.0859
CGATCCACTTGGGTTCTAACCTGTTGCCT (site GGATCCACTAG) | 1.56
GTAGACCCTTGGGTTCTAACCTGTTGCCG (site GTAGACCCTCG) | 2.32
CGGAATCCTTGGGTTCTAACCTGTTGCGT (site CGGAATCCTAA) | 0.159
AATCGAACTTGGGTTCTAACCTGTTGCCT (site GATCGAACTAG) | 0.15
TCCTATGCTTGGGTTCTAACCTGTTGCTA (site CAAGTGACTAG) | 0.0648
GACTTGCCTTGGGTTCTAACCTGTTGCAT (site GACTTCCCTAT) | 0.113
GATTCACCTTGGGTTCTAACCTGTTGCCT (site CATTCACCTAG) | 0.0425
TCTGTAACTTGGGTTCTAACCTGTTGCCT (site CAATCCTCTTA) | 0.183
TGACCCTCTTGGGTTCTAACCTGTTGCCT (site CGACCCTCTAG) | 0.465
GGCAGGTCTTGGGTTCTAACCTGTTGCTT (site GGCAGCTCTAA) | 0.0728
TCTAAGCCTTGGGTTCTAACCTGTTGCAT (site TCTAAGCCTAT) | 0.531
TAGGACACTTGGGTTCTAACCTGTTGCGT (site TAGGAAACTAC) | 0.378
TTGAGGCCTTGGGTTCTAACCTGTTGCCT (site ATGAGGCCTAG) | 0.059
GCGCACACTTGGGTTCTAACCTGTTGCCT (site TCGCACACTAG) | 0.319
CTGTCTACTTGGGTTCTAACCTGTTGCCT (site CGGTCTACTAG) | 0.134
CTATTGTCTTGGGTTCTAACCTGTTGCGC (site CTATTGTCTGC) | 2.77
AACTTCCCTTGGGTTCTAACCTGTTGCCT (site AACTTCGCTAG) | 0.00996
